Experimental findings from ChEMBL document CHEMBL3085639, “Novel camphane-based anti-tuberculosis agents with nanomolar activity” (2013) are described below.

≈ marks a conversion by molar mass, not a printed value.

In this experiment the test system is Mycobacterium tuberculosis. Put plainly: Antimycobacterial activity against rifampin/isoniazid-resistant Mycobacterium tuberculosis 43 assessed as growth inhibition after 45 days by Canetti proportional method. The format is functional.
A word on the MIC: it is the lowest concentration that inhibits growth of the organism. For `CC1(C)[C@@H]2CC[C@@]1(C)[C@H](O)[C@@H]2NC(=O)/C=C/c1ccccc1`, the minimum inhibitory concentration (MIC) was 6.68 µM (≈ 2 µg/mL). Regarding `CC1(C)[C@@H]2CC[C@@]1(C)[C@H](O)[C@@H]2NC(=O)c1ccco1`, the MIC is 7.59 µM (≈ 2 µg/mL). On to `CC(=O)Oc1ccccc1C(=O)N[C@@H]1[C@H]2CC[C@@](C)([C@@H]1O)C2(C)C`, for which the MIC is above 15.1 µM. The value for `CC1(C)[C@@H]2CC[C@@]1(C)[C@H](O)[C@@H]2NC(=O)c1cccnc1` was 18.2 µM (≈ 5 µg/mL). Turning to `CCNC(=O)N[C@@H]1[C@H]2CC[C@@](C)([C@@H]1O)C2(C)C`, the MIC is above 20.8 µM. `CC1(C)[C@@H]2CC[C@@]1(C)[C@H](O)[C@@H]2NC(=O)CCc1ccccc1`: the MIC worked out at 6.63 µM (≈ 2 µg/mL).
